# Results: patent US11118208B2, “Methods for modulating protein galactosylation profiles of recombinant proteins using peracetyl galactose” (ARES TRADING S.A., priority 2016, dated 2021)
# Values joined by “and” are separate entries in the source; they are usually repeats but may differ in a detail not shown here. Identical values can stand only once.
# Tests used:
# Type in all cases: cell-based, Chinese hamster
# [1] = test system: mAb2 cells (CHO-Ki cells expressing IgG1 mAb2); test: Fed-batch culture of mAb2 cells in TubeSpin: viable cell density, viability, titer
# Procedure: (§1) Additional assays were performed with another antibody also produced in another CHO cell line: CHO-Ki cells expressing IgG1 mAb2, herein “Cells mAb2” or “mAb2 cells”. “mAb2” is a humanized monoclonal antibody directed against a receptor found on the cell membrane. Its isoelectric point (pI) is about 9.30.
# (§2) Cells expressing mAb1 were inoculated at 0.3×10^6 cells per millilitre (mL), whereas Cells expressing mAb2 were inoculated at 0.2×10^6 cells per millilitre (mL).
# (§3) For examples 1-3: A serum-free chemically defined culture medium was used. It was used as it is, or it was supplemented with α- or β-2-F-peracetyl galactose (herein α- or β-2F-pGal; Biosynth & AX Molecules) at different concentrations (0-200 μM before seeding). The concentrations indicated on FIGS. 1, 2, 3 and 4 are the concentrations in α- or β-2F-pGal in the culture medium at day 0, just before the inoculation. The culture medium was fed, on a regular basis, with a chemically defined feed medium, as well as with glucose in order to keep said glucose level in the range of >0 to about 8 g/L (feeds are done at days 3, 5, 7, 10 and 12).
# (§4) The cultures were performed in deepwell plates (DWP) with a working volume of 450 μL. They were incubated at 36.5° C., 5% de CO2, 90% humidity and shaken at 320 rpm. Each of the fed-batch culture lasted 14 days. It is well known that experiments in DWP are artificial, although they allow a first screening of culture conditions. In order to confirm that the results obtained in DWP were reproducible at higher scale, similar experiments were also run in TubeSpin® (also called herein shake tubes or ST), with a working volume of 30 mL cell culture (same culture condition than for deepwell plates).
# (§5) For TubeSpin® experiments, viable cell density and viability were measured with the ViCell®. Antibody titers were measured using Biacore®.
# [2] = test system: mAb1 cells (CHO-S cells expressing IgG1 mAb1); test: Fed-batch culture of mAb1 cells in deepwell plates (DWP): viable cell density, viability, titer
# Procedure: (§6) First assays were performed with an antibody produced in a CHO cell line: CHO-S cells expressing IgG1 mAb1, herein “Cells mAb1” or “mAb1 cells”. “mAb1” is a fully human monoclonal antibody directed against a soluble protein. Its isoelectric point (pI) is about 8.20-8.30.
# as §2, §3, §4
# For DWP experiments, viable cell density and viability were measured with the Guava easyCyte® flow cytometer. Antibody titers were measured with the fortéBIO Octet®.
# (§7) The cells were cultivated and the results analysed as disclosed in the material and method section. It is noted that the controls (or control conditions) according to the present invention correspond to cells grown without peracetyl galactose.
# [3] = test system: mAb1 cells (CHO-S cells expressing IgG1 mAb1); test: Fed-batch culture of mAb1 cells in TubeSpin (shake tubes): viable cell density, viability, titer
# Procedure: as §6, §2, §3, §4, §5
# [4] = test system: galactosylation of mAb1 antibody (mAb1 cells); test: Glycosylation profile of mAb1 produced in DWP (CGE-LIF)
# Procedure: as §6, §3, §4
# (§8) Glycosylation profiles were established by capillary gel electrophoresis with laser-induced fluorescence (CGE-LIF; for DWP and for Shake tubes experiments) or by Ultra Performance Liquid Chromatography-2-amino-benzamide labelling technique (2AB-UPLC; for Shake tubes experiments). Groups of glycans were defined as thereafter in Table 3.
# as §7
# [5] = test system: galactosylation of mAb1 antibody (mAb1 cells); test: Glycosylation profile of mAb1 produced in TubeSpin (CGE-LIF); conditions: for monogalactosylated form changed by (Example 2.2) / total level of galactosylation decreased by (Example 2.2): shake tubes, CGE-LIF
# Procedure: as §6, §3, §4, §8
# [6] = test system: galactosylation of mAb2 antibody (mAb2 cells); test: Glycosylation profile of mAb2 produced in TubeSpin (2AB-UPLC)
# Procedure: as §1, §3, §4, §8
smiles,measurement,setting,value
"CC(=O)OC[C@H]1OC(OC(C)=O)[C@H](F)[C@@H](OC(C)=O)[C@H]1OC(C)=O (stereo in doubt) [α-2F-pGal, α/β-D-galactopyranose, 2-deoxy-2-fluoro-,1,3,4,6-tetraacetate]",titer at day 7,[1]; 30 μM,~720 mg/L
same,titer at day 14,[1]; 30 μM,3400 to 3420 mg/L
same,titer at day 7,[1]; 60 μM,~720 mg/L
same,titer at day 14,[1]; 60 μM,3400 to 3420 mg/L
same,titer at day 7,[1]; 90 μM,about 670 mg/L
same,titer at day 14,[1]; 90 μM,~3200 mg/L
same,peak viable cell density,"[1]; 90 μM, shake tubes",10.0 ×106 viable cells/mL
same,productivity,[1]; 30 and 60 μM,globally unchanged
same,overall viable cell densities compared to the control,"[1]; 30 and 60 μM, shake tubes",comparable to the control
same,cell viability at day 7,[1]; entire supplement concentration range,about 97%
same,viabilities compared to the control condition,[1]; entire supplement concentration range (30-90 μM),comparable to the control condition
same,decrease of titers comparing to control,[2]; concentration higher than 60 μM,about 1.2 factor
same,impact on protein titre,[2]; concentrations between 30 and 60,no impact on protein titre
same,impact on cell growth,[2]; concentrations of about 60 μM and higher,negative impact on cell growth
same,impact on cell growth until the end of culture,[2]; concentrations up to 30 μM in medium,no impact on cell growth
same,protein titer compared to the control,"[2]; media concentration up to 60 μM, day 10 and day 14",stays above the protein titer of the control
same,"impact on cell density, cell viability and protein titer",[2]; media concentrations below 30 μM,do not impact
same,product titer at the end of the culture (day 14),"[3]; 30 μM, shake tubes",2050 mg/L
same,product titer at the end of the culture (day 14),"[3]; 60 μM, shake tubes, listed as α-2F-p-galactose",2130 mg/L
same,product titer at the end of the culture (day 14),"[3]; 90 μM, shake tubes",2225 mg/L
same,growth inhibitory effect in the first part of the culture,"[3]; 30, 60 and 90 μM, shake tubes",no growth inhibitory effect
same,cell densities compared to control from day 10 until the end of the culture,"[3]; 30 and 90 μM, shake tubes",slightly lower
same,impact on cell growth or protein titer until the end of culture,"[3]; any one of 30, 60 and 90 μM, TubeSpin",no negative impact on cell growth or protein titer
same,effect on cell culture performance,"[3]; between 0 and 90 μM α-2F-p-galactose, 60 μM β-2F-p-galactose, shake tubes",No detrimental effect
same,"protein titer compared to the control at culture days 5, 7, 10, 12 and 14","[3]; α 30-90 μM, β 60 μM, shake tubes, listed as α-2F-p-galactose",comparable at all time points
same,G1F absolute change compared to the control,[4]; 30 μM,1.1%
same,G2F absolute change compared to the control,[4]; 30 μM,0.2%
same,absolute change in galactosylated N-oligosaccharide compared to the control,[4]; 30 μM,1.3%
same,relative decrease of galactosylated N-oligosaccharides compared to control,[4]; 30 μM,17%
same,galactosylated N-oligosaccharides of the protein,[4]; 30 μM in medium,8.3%
same,G1F absolute change compared to the control,[4]; 60 μM,2.5%
same,G2F absolute change compared to the control,[4]; 60 μM,0.3%
same,absolute change in galactosylated N-oligosaccharide compared to the control,[4]; 60 μM,2.8%
same,relative decrease of galactosylated N-oligosaccharides compared to control,[4]; 60 μM,32%
same,galactosylated N-oligosaccharides of the protein,[4]; 60 μM in medium,6.8%
same,G1F absolute change compared to the control,[4]; 120 μM,3.1%
same,G2F absolute change compared to the control,[4]; 120 μM,0.35%
same,absolute change in galactosylated N-oligosaccharide compared to the control,[4]; 120 μM,3.5%
same,relative decrease of galactosylated N-oligosaccharides compared to control,[4]; 120 μM,40%
same,galactosylated N-oligosaccharides of the protein,[4]; 120 μM in medium,6.0%
same,G1F absolute change compared to the control,[4]; 200 μM,4.4%
same,G2F absolute change compared to the control,[4]; 200 μM,0.4%
same,absolute change in galactosylated N-oligosaccharide compared to the control,[4]; 200 μM,4.8%
same,relative decrease of galactosylated N-oligosaccharides compared to control,[4]; 200 μM,52%
same,galactosylated N-oligosaccharides of the protein,[4]; 200 μM in medium,4.8%
same,inhibition effect on galactosylation,[4]; below 30,neither α- or β-2F-pGal does have a significant inhibition effect on galactosylation
same,inhibition effect on galactosylation,[4]; concentrations higher than 30 μM,a significant inhibition effect is observed
same,G1F absolute change compared to the control,"[5]; 30 μM, TubeSpin",1.9%
same,G2F absolute change compared to the control,"[5]; 30 μM, TubeSpin",0.11%
same,relative decrease of galactosylated N-oligosaccharides compared to control,"[5]; 30 μM, TubeSpin",about 16%
same,monogalactosylated form changed by (Example 2.2),[5]; 30 μM,−1.9%
same,total level of galactosylation decreased by (Example 2.2),[5]; 30 μM,2.0%
same,G1F absolute change compared to the control,"[5]; 60 μM, TubeSpin",4.3%
same,G2F absolute change compared to the control,"[5]; 60 μM, TubeSpin",0.27%
same,absolute change of galactosylated N-oligosaccharides compared to the control,"[5]; 60 μM, TubeSpin",4.61% and ~4.5%
same,relative decrease of galactosylated N-oligosaccharides compared to control,"[5]; 60 μM, TubeSpin",~37%
same,total level of galactosylation decreased by (Example 2.2),[5]; 60 μM,4.6%
same,monogalactosylated form changed by (Example 2.2),"[5]; 60 μM, listed as α-2F-peracetyl-galactose",−4.3%
same,G1F absolute change compared to the control,"[5]; 90 μM, TubeSpin",4.3%
same,G2F absolute change compared to the control,"[5]; 90 μM, TubeSpin",0.33%
same,relative decrease of galactosylated N-oligosaccharides compared to control,"[5]; 90 μM, TubeSpin",~36%
same,monogalactosylated form changed by (Example 2.2),[5]; 90 μM,−4.3%
same,total level of galactosylation decreased by (Example 2.2),[5]; 90 μM,−4.5%
same,effect on the overall fucosylated species,[6],+0.5%
same,FA2G1 decrease (absolute change),[6]; 30 μM,−0.85%
same,change of the FA2G2 abundance,[6]; 30 μM,−0.09%
same,reduction of galactosylation (absolute change),[6]; 30 μM,−0.95%
same,FA2G1 decrease (absolute change),[6]; 60 μM,−1.85%
same,change of the FA2G2 abundance,[6]; 60 μM,−0.19%
same,reduction of galactosylation (absolute change),[6]; 60 μM,−2.05%
same,FA2G1 decrease (absolute change),[6]; 90 μM,−1.2%
same,change of the FA2G2 abundance,[6]; 90 μM,−0.19%
same,reduction of galactosylation (absolute change),[6]; 90 μM,−1.4%
